≈ marks a conversion by molar mass, not a printed value.
Assays:
[1] = test system: E. coli Tol C; assay: Antibacterial assay (Test A), standard microtitration, MIC; type: cell-based; conditions: for MIC E. coli Tol C: Gram Negative Bacteria, strain Tol C; for MIC: Escherichia coli, read-out: MIC E. coli Tol C
Method: (§1) The compounds of the present invention were tested against an assortment of Gram-negative and Gram-positive organisms using standard microtitration techniques (Cohen et. al., Antimicrob., 1985; 28: 766; Heifetz, et. al., Antimicrob., 1974; 6: 124).

[2] = test system: M. catarrhalis BC3534; assay: as above; type: cell-based; conditions: strain BC3534; for MIC M. catarrhalis BC3534: Gram Negative Bacteria; for MIC: Moraxella catarrhalis, BC3534, Gram Negative Bacteria
Method: as §1

[3] = test system: H. influenzae HI3542; assay: as above; type: cell-based; conditions: Gram Negative Bacteria, strain HI3542; for MIC: Haemophilus influenzae
Method: as §1

[4] = test system: E. faecalis MGH-2; assay: as above; type: cell-based; conditions: Gram Positive Bacteria, strain MGH-2; for MIC: Enterococcus faecalis, MGH2
Method: as §1

[5] = test system: S. aureus UC-76; assay: as above; type: cell-based; conditions: Gram Positive Bacteria, strain UC-76; for MIC: Staphylococcus aureus, UC76
Method: as §1

[6] = test system: S pyogenes C203; assay: as above; type: cell-based; conditions: Gram Positive Bacteria; strain C203
Method: as §1

For “(S)—N-[2-Oxo-3-(2-phenethyl-4,5-dihydro-2H-6-oxa-1,2-diaza-benzo[e]azulen-8-yl)-oxazolidin-5-ylmethyl]-acetamide and (S)—N-[2-Oxo-3-(1-phenethyl-4,5-dihydro-1H-6-oxa-1,2-diaza-benzo[e]azulen-8-yl)-oxazolidin-5-ylmethyl]-acetamide [Example 42]”, the “MIC E. coli Tol C” value [1] was over 64 µg/mL, the “MIC M. catarrhalis BC3534” value [2] was over 64 µg/mL and the “MIC H. influenzae HI3542” value [3] was over 64 µg/mL. For the same molecule, the “MIC E. faecalis MGH-2” value [4] was 32 µg/mL, the “MIC S. aureus UC-76” value [5] was 32 µg/mL and the “MIC S pyogenes C203” value [6] was 32 µg/mL.
`CC(=O)NC[C@H]1CN(c2ccc3c(c2)OCCc2c(-c4ccc(F)cc4)n[nH]c2-3)C(=O)O1` gave an MIC [4] of 1 µg/mL (≈ 2.29 µM), an MIC [5] of 1 µg/mL (≈ 2.29 µM) and an MIC [6] of 0.5 µg/mL (≈ 1.15 µM).
Work on `CC(=O)NC[C@H]1CN(c2ccc3c(c2)OCCc2cn(C)nc2-3)C(=O)O1` [Example 39, (S)—N-[3-(2-Methyl4,5-dihydro-2H-6-oxa-1,2-diaza-benzo[e]azulen-8-yl)-2-oxo-oxazolidin-5-ylmethyl]-acetamide] yielded an MIC [1] of over 64 µg/mL, an MIC [2] of over 64 µg/mL and an MIC [3] of over 64 µg/mL. The MIC [4] was 32 µg/mL (≈ 89.8 µM), the MIC [5] was over 64 µg/mL and the MIC [6] was 32 µg/mL (≈ 89.8 µM).
For `CC(=O)NC[C@H]1CN(c2ccc3c(c2)OCCc2c(-c4ccncc4)n[nH]c2-3)C(=O)O1` [Example 22, (S)—N-[2-Oxo-3-(3-pyridin-4-yl-4,5-dihydro-1H-6-oxa-1,2-diaza-benzo[e]azulen-8-yl)-oxazolidin-5-ylmethyl]-acetamide], the MIC [1] was over 64 µg/mL, the MIC [2] was over 64 µg/mL and the MIC [3] was 4 µg/mL (≈ 9.54 µM). For the same molecule, the MIC [4] was 4 µg/mL (≈ 9.54 µM), the MIC [5] was 4 µg/mL (≈ 9.54 µM) and the MIC [6] was 1 µg/mL (≈ 2.38 µM).
`CC(=O)NC[C@H]1CN(c2ccc3c(c2)CCS(=O)(=O)c2cnoc2-3)C(=O)O1` showed a melting point of 211 to 212 °C.
With “(S)—N-[3-(2-Benzyl-4,5-dihydro-2H-6-oxa-1,2-diaza-benzo[e]azulen-8-yl)-2-oxo-oxazolidin-5-ylmethyl]-acetamide and (S)—N-[3-(1-Benzyl-4,5-dihydro-1H-6-oxa-1,2-diaza-benzo[e]azulen-8-yl)-2-oxo-oxazolidin-5-ylmethyl]-acetamide [Example 41]” the “MIC E. coli Tol C” value [1] was over 64 µg/mL, the “MIC M. catarrhalis BC3534” value [2] was over 64 µg/mL and the “MIC H. influenzae HI3542” value [3] was over 64 µg/mL. For the same molecule, the “MIC E. faecalis MGH-2” value [4] was over 64 µg/mL, the “MIC S. aureus UC-76” value [5] was over 64 µg/mL and the “MIC S pyogenes C203” value [6] was 32 µg/mL.
In the case of `CC(=O)NC[C@H]1CN(c2ccc3c(c2)CCS(=O)(=O)c2cnc(N)nc2-3)C(=O)O1`, the melting point is reported as 211 to 213 °C (dec.).
With `CC(=O)NC[C@H]1CN(c2ccc3c(c2)CCNC(=O)N3)C(=O)O1` the melting point was 177 to 178 °C.
With `CC(=O)NC[C@H]1CN(c2ccc3c(c2)CCSc2cnc(N)nc2-3)C(=O)O1` the melting point was 190 to 191 °C (dec.).
For “(S)—N-[3-(2-Ethyl-4,5-dihydro-2H-6-oxa-1,2-diaza-benzo[e]azulen-8-yl)-2-oxo-oxazolidin-5-ylmethyl]-acetamide and (S)—N-[3-(1-Ethyl-4,5-dihydro-1H-6-oxa-1,2-diaza-benzo[e]azulen-8-yl)-2-oxo-oxazolidin-5-ylmethyl]-acetamide [Example 40]”, the “MIC E. coli Tol C” value [1] was over 64 µg/mL, the “MIC M. catarrhalis BC3534” value [2] was over 64 µg/mL and the “MIC H. influenzae HI3542” value [3] was over 64 µg/mL. For the same molecule, the “MIC E. faecalis MGH-2” value [4] was over 64 µg/mL, the “MIC S. aureus UC-76” value [5] was over 64 µg/mL and the “MIC S pyogenes C203” value [6] was 32 µg/mL.
In the case of `CC(=O)NC[C@H]1CN(c2ccc3c(c2)CCS(=O)(=O)C(=CN(C)C)C3=O)C(=O)O1`, the melting point is reported as 261 to 263 °C.
`CC(=O)NC[C@H]1CN(c2ccc3c(c2)CCSC(=CN(C)C)C3=O)C(=O)O1` showed a melting point of 221 to 222 °C.
With `CC(=O)NC[C@H]1CN(c2ccc3c(c2)OCCc2cn[nH]c2-3)C(=O)O1` [Example 37, (S)—N-[3-(4,5-Dihydro-1H-6-oxa-1,2-diaza-benzo[e]azulen-8-yl)-2-oxo-oxazolidin-5-ylmethyl]-acetamide] the MIC [1] was over 64 µg/mL, the “MIC M. catarrhalis BC3534” value [2] was 4 µg/mL (≈ 11.7 µM) and the MIC [3] was 8 µg/mL (≈ 23.4 µM). It also gave an MIC [4] of 2 µg/mL (≈ 5.84 µM), an MIC [5] of 2 µg/mL (≈ 5.84 µM) and an MIC [6] of 0.5 µg/mL (≈ 1.46 µM).
`CC(=O)NC[C@H]1CN(c2ccc3c(c2)CCS(=O)(=O)c2cn[nH]c2-3)C(=O)O1` gave a melting point of 292 to 293 °C.
Work on `CC(=O)NC[C@H]1CN(c2ccc3c(c2)CCSCC3=O)C(=O)O1` yielded a melting point of 232 to 233 °C.
For `CC(=O)NC[C@H]1CN(c2ccc3c(c2)OCCc2cn[nH]c2-3)C(=O)O1` [drawing 124], the “MIC E. coli Tol C” value [1] was over 64 µg/mL, the “MIC M. catarrhalis BC3534” value [2] was 16 µg/mL (≈ 46.7 µM) and the “MIC H. influenzae HI3542” value [3] was 8 µg/mL (≈ 23.4 µM).
With `CC(=O)NC[C@H]1CN(c2ccc3c(c2)CCC(N)C(=O)N3)C(=O)O1` (stereo partly drawn) the melting point was > 160 °C (dec.).
For `CC(=O)NC[C@H]1CN(c2ccc3c(c2)CCSc2cn[nH]c2-3)C(=O)O1`, the melting point was 186 to 187 °C.
With `CC(=O)NC[C@H]1CN(c2ccc3c(c2)OCCc2cnoc2-3)C(=O)O1` [Example 38, (S)—N-[3-(4,5-Dihydro-1,6-dioxa-2-aza-benzo[e]azulen-8-yl)-2-oxo-oxazolidin-5-ylmethyl]-acetamide] the MIC [1] was over 64 µg/mL, the MIC [3] was 4 µg/mL (≈ 11.7 µM) and the MIC [4] was 1 µg/mL (≈ 2.91 µM). The MIC [5] was 1 µg/mL (≈ 2.91 µM) and the MIC [6] was 0.5 µg/mL (≈ 1.46 µM).

From patent US20050277630A1, “Antibacterial agents” (priority 2003, published 2005)
